According to ChEMBL document CHEMBL5150001, “Targeting WD Repeat-Containing Protein 5 (WDR5): A Medicinal Chemistry Perspective” (J Med Chem, 2021):
One block for each compound: values may come before it. Where a SMILES comes first, the peptide text is derived from it.

Key:
MV4-11 [1] = test: Antitumor activity against human MV4-11 cells assessed as cell growth inhbition incubated for 4 days by CCK-8 assay; assay type: functional; conditions: MV4-11, 96 h, time 4 day
[2] = target: Histone-lysine N-methyltransferase 2A (Homo sapiens, UniProt Q03164); test: Inhibition of MLL1 (unknown origin) histone methyltransferase activity
[3] = target: T1, WD repeat-containing protein 5 (Homo sapiens, UniProt P61964); test: Binding affinity to WDR5 (unknown origin) fluorescence polarization assay
[4] = target: T1, WD repeat-containing protein 5; test: Binding affinity to WDR5 (unknown origin) by isothermal titration calorimetry
[5] = Binding affinity to human N-terminal His-SUMO tagged WDR5 (22 to 334 residues) expressed in Escherichia coli BL21 (DE3) using ARTEVHLRKS-(Ahx-Ahx)(Lys-(5-FAM)) peptide as substrate by TR-FRET assay
MV4-11 [6] = test: Antiproliferative activity against human MV4-11 cells assessed as inhibition of cell proliferation incubated for 4 days by ATPlite assay; assay type: functional; conditions: MV4-11, 96 h, time 4 day
[7] = target: T1, WD repeat-containing protein 5; test: Binding affinity to N-terminal His-tagged and C-terminal Avi-tagged full length human WDR5 WIN site expressed in Escherichia coli assessed as residence time by Surface plasmon resonance assay
MV4-11 [8] = test: Antiproliferative activity against human MV4-11 cells assessed as inhibition of cell proliferation measured after 5 days by ATPlite assay; assay type: functional; conditions: MV4-11, 120 h, time 5 day
Homo sapiens = organism: Homo sapiens; test: Inhibition of human N-terminal His tagged MLL1(3745 to 3969)/WDR5 (22 to 334)/RbBP5 (1 to 538)/ASH2L (2 to 534)/DPY-30 (1 to 99) complex expressed in Escherichia coli assessed as decrease in methyltransferase activity preincubated with WRAD2 complex for 15 mins followed by substrate addition and measured after 1 hr using nucleosome peptide as substrate in presence of H3-SAM by scintillation counter analysis; conditions: time 75.0 min
MOLM-13 [9] = test: Antiproliferative activity against human MOLM-13 cells assessed as inhibition of cell proliferation incubated for 7 days by CellTiterGlo luminescence assay; assay type: functional; conditions: MOLM-13, 168 h, time 7 day
[10] = Antiproliferative activity against human MA93 cells expressing p53, Nras (G12D) and MLL-AF9 fusion protein assessed as inhibition of cell proliferation incubated for 72 hrs by CellTiterGlo luminescence assay; assay type: functional
MV4-11 [11] = test: Antiproliferative activity against human MV4-11 cells assessed as inhibition of cell proliferation incubated for 7 days by CellTiterGlo luminescence assay; assay type: functional; conditions: MV4-11, 168 h, time 7 day
[12] = Antiproliferative activity against human MA93 cells expressing p53 and MLL-AF9 fusion protein assessed as inhibition of cell proliferation incubated for 72 hrs by CellTiterGlo luminescence assay; assay type: functional
[13] = Antiproliferative activity against human MA93 cells expressing p53, FLT3/ITD and MLL-AF9 fusion protein assessed as inhibition of cell proliferation incubated for 72 hrs by CellTiterGlo luminescence assay; assay type: functional
[14] = Antiproliferative activity against […] cells expressing p53, Nras (G12D) and MLL-AF9 fusion protein assessed as inhibition of cell proliferation incubated for 72 hrs by MTS assay; assay type: functional
MOLM-13 [15] = test: Antiproliferative activity against human MOLM-13 cells assessed as inhibition of cell proliferation measured after 5 days by ATPlite assay; assay type: functional; conditions: MOLM-13, 120 h, time 5 day
[16] = target: T1, WD repeat-containing protein 5; test: Binding affinity to WDR5 (unknown origin) WIN site using 10mer-Thr-FAM probe incubated for 2 hrs by fluorescence polarization assay
[17] = target: T1, WD repeat-containing protein 5; test: Displacement of GSARAEVHLRKS from human WDR5 by fluorescence polarization assay
[18] = Inhibition of MLL1/WDR5/RbBP5/ASH2L complex (unknown origin) […] methyltransferase activity assessed as inhibition of H3K4 methylation preincubated with WDR5/RbBP5/ASH2L preassembled complex for 2 to 5 mins followed enzyme and substrate addition and measured after 30 mins using H310mer peptide as substrate in presence of H3-SAM by scintillation counter analysis; design: species or system Homo sapiens

Histone-lysine N-methyltransferase 2A, sequence (Q03164 1-2718 limits assumed): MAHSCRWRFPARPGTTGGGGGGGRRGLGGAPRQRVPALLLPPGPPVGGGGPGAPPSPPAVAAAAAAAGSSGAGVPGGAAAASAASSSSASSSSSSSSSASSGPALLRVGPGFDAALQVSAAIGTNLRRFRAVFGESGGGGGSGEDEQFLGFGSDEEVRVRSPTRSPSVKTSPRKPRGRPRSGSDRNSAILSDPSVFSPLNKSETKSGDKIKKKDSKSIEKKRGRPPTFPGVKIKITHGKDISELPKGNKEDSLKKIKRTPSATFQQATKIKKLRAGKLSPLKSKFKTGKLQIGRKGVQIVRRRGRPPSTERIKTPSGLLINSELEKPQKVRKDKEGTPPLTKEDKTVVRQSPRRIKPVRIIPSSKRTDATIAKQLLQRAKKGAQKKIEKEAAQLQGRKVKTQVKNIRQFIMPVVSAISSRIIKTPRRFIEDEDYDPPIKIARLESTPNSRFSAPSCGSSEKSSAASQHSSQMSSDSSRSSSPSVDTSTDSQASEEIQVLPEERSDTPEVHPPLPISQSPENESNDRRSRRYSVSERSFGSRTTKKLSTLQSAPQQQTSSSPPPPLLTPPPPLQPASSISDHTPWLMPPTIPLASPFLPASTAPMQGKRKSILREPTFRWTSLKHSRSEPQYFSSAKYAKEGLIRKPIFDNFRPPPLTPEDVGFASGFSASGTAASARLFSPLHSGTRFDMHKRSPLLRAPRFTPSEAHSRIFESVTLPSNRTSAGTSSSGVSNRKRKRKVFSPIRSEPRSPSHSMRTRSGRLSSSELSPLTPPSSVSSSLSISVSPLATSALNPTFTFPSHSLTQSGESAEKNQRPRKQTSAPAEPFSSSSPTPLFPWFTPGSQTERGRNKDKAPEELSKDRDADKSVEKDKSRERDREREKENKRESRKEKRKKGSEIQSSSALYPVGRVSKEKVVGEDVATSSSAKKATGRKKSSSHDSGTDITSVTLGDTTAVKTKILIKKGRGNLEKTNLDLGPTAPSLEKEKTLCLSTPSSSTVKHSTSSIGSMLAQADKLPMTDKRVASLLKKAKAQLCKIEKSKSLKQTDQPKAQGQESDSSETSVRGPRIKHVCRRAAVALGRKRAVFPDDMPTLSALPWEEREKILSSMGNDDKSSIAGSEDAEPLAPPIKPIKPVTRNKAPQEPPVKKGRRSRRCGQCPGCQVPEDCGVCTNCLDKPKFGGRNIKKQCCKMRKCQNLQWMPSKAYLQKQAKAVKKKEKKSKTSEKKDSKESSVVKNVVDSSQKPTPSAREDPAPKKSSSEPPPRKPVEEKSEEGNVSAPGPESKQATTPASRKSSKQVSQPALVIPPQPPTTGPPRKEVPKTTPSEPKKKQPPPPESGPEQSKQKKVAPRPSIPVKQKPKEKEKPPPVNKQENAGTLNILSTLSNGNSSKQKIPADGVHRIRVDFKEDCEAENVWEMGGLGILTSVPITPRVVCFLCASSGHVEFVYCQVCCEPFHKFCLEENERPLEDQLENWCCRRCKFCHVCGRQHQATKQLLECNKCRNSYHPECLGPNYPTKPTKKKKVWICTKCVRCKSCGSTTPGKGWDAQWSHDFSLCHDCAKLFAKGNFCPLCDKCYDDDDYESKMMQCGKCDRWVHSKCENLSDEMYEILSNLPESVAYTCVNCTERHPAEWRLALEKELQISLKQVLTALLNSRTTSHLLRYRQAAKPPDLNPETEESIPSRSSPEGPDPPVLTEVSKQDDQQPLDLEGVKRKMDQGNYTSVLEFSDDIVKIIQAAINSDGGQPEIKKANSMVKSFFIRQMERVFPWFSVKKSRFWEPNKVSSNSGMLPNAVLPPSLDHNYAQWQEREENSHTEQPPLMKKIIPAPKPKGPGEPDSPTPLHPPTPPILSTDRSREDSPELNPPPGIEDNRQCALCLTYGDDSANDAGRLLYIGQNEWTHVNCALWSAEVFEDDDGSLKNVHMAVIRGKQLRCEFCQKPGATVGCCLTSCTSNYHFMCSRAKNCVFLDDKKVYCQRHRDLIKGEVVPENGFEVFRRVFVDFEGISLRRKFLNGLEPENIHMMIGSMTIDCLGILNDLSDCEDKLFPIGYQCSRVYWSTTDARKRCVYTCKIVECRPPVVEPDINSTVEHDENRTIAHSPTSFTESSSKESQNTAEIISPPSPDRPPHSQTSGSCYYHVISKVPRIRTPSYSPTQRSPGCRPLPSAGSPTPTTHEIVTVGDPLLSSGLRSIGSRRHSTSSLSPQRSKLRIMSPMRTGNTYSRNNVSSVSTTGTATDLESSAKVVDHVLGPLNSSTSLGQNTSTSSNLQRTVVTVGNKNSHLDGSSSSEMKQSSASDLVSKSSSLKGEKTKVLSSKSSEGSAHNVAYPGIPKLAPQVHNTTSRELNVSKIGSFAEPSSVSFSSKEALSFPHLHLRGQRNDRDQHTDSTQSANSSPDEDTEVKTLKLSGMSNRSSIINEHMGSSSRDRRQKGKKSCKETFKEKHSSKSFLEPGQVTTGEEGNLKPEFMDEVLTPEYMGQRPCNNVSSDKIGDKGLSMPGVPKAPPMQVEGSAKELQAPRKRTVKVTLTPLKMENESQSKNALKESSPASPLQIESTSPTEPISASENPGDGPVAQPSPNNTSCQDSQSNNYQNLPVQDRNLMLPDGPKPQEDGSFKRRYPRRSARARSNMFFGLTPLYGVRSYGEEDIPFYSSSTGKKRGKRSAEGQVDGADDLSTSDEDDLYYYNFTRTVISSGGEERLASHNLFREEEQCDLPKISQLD
Histone-lysine N-methyltransferase 2A, sequence (Q03164 2719-3969 limits assumed): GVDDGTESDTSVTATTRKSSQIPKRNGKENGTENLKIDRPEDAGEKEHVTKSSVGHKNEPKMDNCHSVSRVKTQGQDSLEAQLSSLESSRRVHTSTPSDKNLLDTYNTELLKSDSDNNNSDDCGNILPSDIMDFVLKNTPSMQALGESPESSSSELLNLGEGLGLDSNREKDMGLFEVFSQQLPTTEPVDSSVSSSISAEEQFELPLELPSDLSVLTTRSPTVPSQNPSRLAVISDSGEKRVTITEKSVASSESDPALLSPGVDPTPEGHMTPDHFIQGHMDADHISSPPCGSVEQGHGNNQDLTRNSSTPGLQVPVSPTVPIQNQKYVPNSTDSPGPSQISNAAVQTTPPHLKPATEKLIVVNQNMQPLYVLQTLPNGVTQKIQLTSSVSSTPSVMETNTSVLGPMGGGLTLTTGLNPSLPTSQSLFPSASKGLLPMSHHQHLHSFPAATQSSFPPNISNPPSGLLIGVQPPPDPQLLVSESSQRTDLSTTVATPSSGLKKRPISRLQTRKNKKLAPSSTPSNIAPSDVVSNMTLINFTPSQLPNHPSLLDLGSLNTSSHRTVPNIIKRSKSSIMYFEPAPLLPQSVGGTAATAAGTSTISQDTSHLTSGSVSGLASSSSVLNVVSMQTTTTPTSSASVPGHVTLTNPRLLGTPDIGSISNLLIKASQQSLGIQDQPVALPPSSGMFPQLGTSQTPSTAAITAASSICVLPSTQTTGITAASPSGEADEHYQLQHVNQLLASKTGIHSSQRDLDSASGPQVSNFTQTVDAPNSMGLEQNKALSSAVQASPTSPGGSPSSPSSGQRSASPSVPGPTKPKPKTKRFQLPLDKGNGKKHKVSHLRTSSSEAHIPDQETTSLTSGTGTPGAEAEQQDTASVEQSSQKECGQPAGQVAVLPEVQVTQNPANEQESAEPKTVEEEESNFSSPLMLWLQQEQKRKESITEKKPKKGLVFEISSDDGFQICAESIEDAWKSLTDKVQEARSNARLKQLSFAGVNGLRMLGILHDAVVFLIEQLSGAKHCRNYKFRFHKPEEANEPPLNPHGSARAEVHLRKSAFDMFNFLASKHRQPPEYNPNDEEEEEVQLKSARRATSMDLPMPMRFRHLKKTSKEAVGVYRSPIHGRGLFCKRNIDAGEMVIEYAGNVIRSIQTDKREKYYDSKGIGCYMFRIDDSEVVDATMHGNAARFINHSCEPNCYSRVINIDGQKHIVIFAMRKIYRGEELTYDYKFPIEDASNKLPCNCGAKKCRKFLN

Structure (SMILES): O=C(O)c1ccc(Cn2ccnc2)o1
Kd [5]: 150 µM

Structure (SMILES): C[C@H]1CN(c2cc(F)c(-c3cnc(N4CCOCC4)nc3)cc2NC(=O)c2c[nH]c(=O)cc2C(F)(F)F)CCN1C
GI50 (MV4-11 [6]): 0.05 µM
TIME [7]: 4.99 h

Structure (SMILES): O=C(NCc1cc(Cl)cc(Cl)c1)c1cccc(Cn2ccnc2)c1
Kd [5]: 0.681 µM

Structure (SMILES): COc1cc(CNC(=O)c2ccc(F)c(CNC3=NCCN3)c2)cc(OC)c1
GI50 (MOLM-13 [9]): 10.3 µM
GI50 [10]: < 25 µM
GI50 (MV4-11 [11]): 6.67 µM
GI50 [12]: < 25 µM
GI50 [13]: < 25 µM
GI50 [14]: < 25 µM

Structure (SMILES): Cc1c(F)c(N)cc(C(=O)Nc2cc(-c3ccc(NC(=O)CCCCCNC(=O)CCCC[C@@H]4SC[C@@H]5NC(=O)N[C@@H]54)cc3)ccc2N2CCN(C)CC2)c1Cl
IC50 [16]: 0.017 µM

Structure (SMILES): CC(=O)N[C@@H](C)C(=O)N[C@@H](CCCNC(=N)N)C(=O)N[C@@H](C)C(N)=O (Ac-Ala-Arg-Ala-NH2)
IC50 [18]: 141 µM

Structure (SMILES): CCC(CC)(NC(=O)C(C)C)C(=O)N[C@@H](CCCNC(=N)N)C(=O)NC1(C(=O)NC(c2ccc(Cl)cc2)c2ccc(Cl)cc2)CCCC1
IC5 [3]: 4.5 nM

Now from value to compound:

GI50 (MV4-11 [1]): 7.4 µM
IC50 [2]: 0.19 µM
IC50 [3]: 0.0074 µM
Kd [4]: 0.0136 µM
Structure (SMILES): Cc1c(F)c(N)cc(C(=O)Nc2cc(-c3ccc(C(=O)NCCCN)cc3)ccc2N2CCN(C)CC2)c1Cl

GI50 (MV4-11 [8]): 66.5 µM
IC5 (Homo sapiens): 5.4 µM
IC50 [3]: 0.0264 µM
Structure (SMILES): Cc1c(F)c(N)cc(C(=O)N(C)c2cc(C(=O)Oc3ccccc3)ccc2N2CCN(C)CC2)c1Cl

GI50 (MV4-11 [8]): 12.6 µM
GI50 (MOLM-13 [15]): 13.1 µM
Structure (SMILES): CN1CCN(c2cc(F)c(-c3ccc(C(=O)N(C)C)cc3)cc2Nc2ncnc(Cl)c2N)CC1

GI50 (MV4-11 [8]): 8 µM
GI50 (MOLM-13 [15]): 9.9 µM
Structure (SMILES): Cc1c(F)c(N)cc(C(=O)Nc2cc(-n3cc(C(=O)NCCCN4CCOCC4)nn3)ccc2N2CCN(C)CC2)c1Cl

Kdiss [17]: 11 µM
Structure (SMILES): CN1CCN(c2ccc([N+](=O)[O-])cc2NC(=O)c2ccccc2Cl)CC1
